According to ChEMBL document CHEMBL1201862, “PubChem BioAssay data set” (2004):
The source made the active and inactive calls.

Key:
[1] = target: Ras and Rab interactor 1/Tyrosine-protein kinase ABL1 (Homo sapiens, UniProt P00519+Q13671); format: functional;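 also: biochemical TR-FRET dose-response test measuring inhibition of binding between Rin1 and Abl proteins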
[2] = target: T1, Mitochondrial peptide methionine sulfoxide reductase (Bos taurus, UniProt P54149); experiment: Absorbance-based biochemical high throughput dose response assay for activators of Methionine sulfoxide reductase A (MsrA).; format: functional
T1 sequence (P54149 whole entry): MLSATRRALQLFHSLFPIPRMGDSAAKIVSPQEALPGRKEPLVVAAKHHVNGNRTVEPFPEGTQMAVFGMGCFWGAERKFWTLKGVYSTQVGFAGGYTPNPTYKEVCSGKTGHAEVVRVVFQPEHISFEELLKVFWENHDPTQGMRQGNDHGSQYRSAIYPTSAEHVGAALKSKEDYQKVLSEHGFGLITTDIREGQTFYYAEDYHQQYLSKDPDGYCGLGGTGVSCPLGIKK

[3] = target: Large T antigen (Simian virus 40, UniProt P03070); format: functional, Betapolyomavirus macacae;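 also: Confirmatory-stage PubChem screen for compounds that inhibit SV40 T antigen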
[4] = tested on: CHO-K1; experiment: (§1) Counterscreen for antagonists of the orexin 1 receptor (OX1R; HCRTR1): Homogeneous time resolved fluorescence (HTRF)-based cell-based dose response assay to identify antagonists of the parental CHO-K1 cell line. [Related pubchem assays (depositor defined):AID434989, AID435008, AID463079, AID485270, AID492963, AID492964, AID492965, AID493232, AID504699, AID504701]; format: functional; settings: Cricetulus griseus
[5] = target: T2, Orexin/Hypocretin receptor type 1 (Homo sapiens, UniProt O43613); experiment: (§2) Fluorescence-based cell-based high throughput dose response assay for antagonists of the orexin 1 receptor (OX1R; HCRTR1). [Related pubchem assays (depositor defined):AID434989, AID435008, AID463079, AID485270, AID492963, AID492964, AID492965, AID493232, AID504717, AID504718]; format: functional
T2 sequence (O43613 whole entry): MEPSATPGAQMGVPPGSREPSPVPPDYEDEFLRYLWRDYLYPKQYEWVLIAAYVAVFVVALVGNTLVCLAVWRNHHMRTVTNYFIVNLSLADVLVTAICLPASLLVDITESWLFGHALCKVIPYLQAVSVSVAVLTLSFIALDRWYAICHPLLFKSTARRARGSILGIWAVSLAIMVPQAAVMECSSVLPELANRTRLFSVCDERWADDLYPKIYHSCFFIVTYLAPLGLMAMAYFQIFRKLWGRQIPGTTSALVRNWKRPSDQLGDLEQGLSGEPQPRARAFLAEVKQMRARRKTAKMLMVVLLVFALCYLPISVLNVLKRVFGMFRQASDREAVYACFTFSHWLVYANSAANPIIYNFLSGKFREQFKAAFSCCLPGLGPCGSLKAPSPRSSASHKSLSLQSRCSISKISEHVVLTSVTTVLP

[6] = target: T3, Orexin receptor type 2 (Homo sapiens, UniProt O43614); experiment: Counterscreen assay for antagonists of the orexin 1 receptor (OX1R; HCRTR1): Homogeneous Time Resolved Fluorescence (HTRF)-based cell-based dose response assay for antagonists of the orexin 2 receptor (OX2R; HCRTR2), run by assay provider.; format: functional
T3 sequence (O43614 whole entry): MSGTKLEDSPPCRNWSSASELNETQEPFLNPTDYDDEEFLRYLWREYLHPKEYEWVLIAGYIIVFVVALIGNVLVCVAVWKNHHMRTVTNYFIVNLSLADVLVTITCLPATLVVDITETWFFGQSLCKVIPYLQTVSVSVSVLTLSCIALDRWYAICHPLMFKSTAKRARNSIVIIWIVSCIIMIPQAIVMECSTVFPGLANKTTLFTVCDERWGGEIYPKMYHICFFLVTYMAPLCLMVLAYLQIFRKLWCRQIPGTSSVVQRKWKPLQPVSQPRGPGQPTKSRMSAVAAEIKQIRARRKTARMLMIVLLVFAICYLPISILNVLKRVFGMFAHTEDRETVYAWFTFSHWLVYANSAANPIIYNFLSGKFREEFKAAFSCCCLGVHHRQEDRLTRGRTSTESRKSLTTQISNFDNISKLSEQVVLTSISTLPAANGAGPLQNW

[7] = as §1, with “Fluorescence-based” for “Homogeneous time resolved fluorescence (HTRF)-based”, “cell-based high throughput” for “cell-based”, “CHO” for “CHO-K1”; format: functional
[8] = target: T3, Orexin receptor type 2; experiment: Counterscreen assay for antagonists of the orexin 1 receptor (OX1R; HCRTR1): Fluorescence-based cell-based dose response assay for antagonists of the orexin 2 receptor (OX2R; HCRTR2), run by assay provider.; format: functional
[9] = target: T2, Orexin/Hypocretin receptor type 1; experiment: as §2, with “Homogeneous Time Resolved Fluorescence (HTRF)-based” for “Fluorescence-based”; format: functional
[10] = miR-122 activators in hepatoma reporter cells, dose response, cell-based, Huh7 psiCHECK-miR122, Renilla luciferase, cherry-picked (AID 651956); format: functional;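 also: huh7 hepatoma cells stably carrying a psiCHECK-2 miR-122 sensor plasmid; renilla luciferase signal reporting endogenous miR-122 activity after 48 h compound exposure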
[11] = inhibitors of SNCA 5'UTR-driven reporter translation, confirmation, H4 neuroglioma cells, luminescence (AID 1988); format: functional, cell-based
[12] = inhibitors of firefly luciferase expression or activity, dose response, H4 neuroglioma cells, luminescence (AID 1990); format: functional, cell-based
[13] = target: Cytochrome P450 2C9 (Homo sapiens, UniProt P11712)
[14] = Luminescence Cell-Based Dose Response HTS to Identify Inhibitors of 5'UTR Stem-Loop Driven Prion Protein mRNA Translation in H4 Neuroglioblastoma Cells. [Related pubchem assays: 1827 (Project Summary), 1813 (Primary HTS)]; format: functional
[15] = target: Cytochrome P450 2C19 (Homo sapiens, UniProt P33261); experiment: Cytochrome panel assay with activity outcomes. Panel member name: p450-cyp2c19 Compounds with AC50 equal or less than 10 uM are considered active; format: functional; settings: read-out: AC50
Sequence of Cytochrome P450 2C19 (P33261 whole entry): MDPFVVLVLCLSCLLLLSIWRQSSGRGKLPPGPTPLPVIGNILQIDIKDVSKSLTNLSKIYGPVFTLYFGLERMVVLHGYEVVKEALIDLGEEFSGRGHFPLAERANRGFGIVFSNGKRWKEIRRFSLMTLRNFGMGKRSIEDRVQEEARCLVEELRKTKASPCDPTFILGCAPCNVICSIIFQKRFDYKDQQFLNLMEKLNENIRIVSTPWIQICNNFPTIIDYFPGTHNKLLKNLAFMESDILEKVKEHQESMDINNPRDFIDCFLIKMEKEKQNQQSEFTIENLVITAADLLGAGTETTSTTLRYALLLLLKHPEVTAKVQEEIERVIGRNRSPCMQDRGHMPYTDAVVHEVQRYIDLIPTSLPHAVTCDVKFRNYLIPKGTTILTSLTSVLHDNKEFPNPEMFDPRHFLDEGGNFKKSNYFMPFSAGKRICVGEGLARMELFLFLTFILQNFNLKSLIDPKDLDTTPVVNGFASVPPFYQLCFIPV

Sequence of Ras and Rab interactor 1/Tyrosine-protein kinase ABL1 (P00519 whole entry): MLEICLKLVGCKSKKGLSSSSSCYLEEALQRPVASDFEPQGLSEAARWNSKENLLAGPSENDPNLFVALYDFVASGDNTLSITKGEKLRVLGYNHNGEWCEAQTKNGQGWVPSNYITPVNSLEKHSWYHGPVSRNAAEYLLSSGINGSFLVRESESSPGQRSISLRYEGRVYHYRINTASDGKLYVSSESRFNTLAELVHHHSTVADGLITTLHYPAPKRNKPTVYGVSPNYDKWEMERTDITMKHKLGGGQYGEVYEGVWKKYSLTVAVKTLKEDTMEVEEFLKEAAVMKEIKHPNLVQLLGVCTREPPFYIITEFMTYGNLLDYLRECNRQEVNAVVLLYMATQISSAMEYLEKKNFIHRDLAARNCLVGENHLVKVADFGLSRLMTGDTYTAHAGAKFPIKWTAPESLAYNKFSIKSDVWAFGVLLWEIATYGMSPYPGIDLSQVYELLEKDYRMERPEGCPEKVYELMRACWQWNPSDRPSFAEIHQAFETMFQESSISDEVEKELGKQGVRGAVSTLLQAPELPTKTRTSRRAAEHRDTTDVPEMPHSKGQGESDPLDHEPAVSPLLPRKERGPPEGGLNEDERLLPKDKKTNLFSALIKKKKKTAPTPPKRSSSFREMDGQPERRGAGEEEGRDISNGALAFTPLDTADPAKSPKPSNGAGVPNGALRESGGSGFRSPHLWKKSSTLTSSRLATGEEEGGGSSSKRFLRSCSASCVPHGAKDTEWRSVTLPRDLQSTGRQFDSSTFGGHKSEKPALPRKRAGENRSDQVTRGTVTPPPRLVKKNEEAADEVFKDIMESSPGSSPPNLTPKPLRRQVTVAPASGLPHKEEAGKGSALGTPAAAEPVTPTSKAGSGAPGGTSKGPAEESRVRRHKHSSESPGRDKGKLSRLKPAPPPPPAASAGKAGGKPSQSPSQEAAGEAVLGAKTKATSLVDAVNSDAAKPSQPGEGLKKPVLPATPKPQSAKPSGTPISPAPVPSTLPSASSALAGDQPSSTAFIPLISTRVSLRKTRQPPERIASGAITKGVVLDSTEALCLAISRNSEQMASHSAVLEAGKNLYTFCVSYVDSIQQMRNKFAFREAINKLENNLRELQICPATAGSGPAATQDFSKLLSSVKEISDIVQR
Sequence of Ras and Rab interactor 1/Tyrosine-protein kinase ABL1 (Q13671 whole entry): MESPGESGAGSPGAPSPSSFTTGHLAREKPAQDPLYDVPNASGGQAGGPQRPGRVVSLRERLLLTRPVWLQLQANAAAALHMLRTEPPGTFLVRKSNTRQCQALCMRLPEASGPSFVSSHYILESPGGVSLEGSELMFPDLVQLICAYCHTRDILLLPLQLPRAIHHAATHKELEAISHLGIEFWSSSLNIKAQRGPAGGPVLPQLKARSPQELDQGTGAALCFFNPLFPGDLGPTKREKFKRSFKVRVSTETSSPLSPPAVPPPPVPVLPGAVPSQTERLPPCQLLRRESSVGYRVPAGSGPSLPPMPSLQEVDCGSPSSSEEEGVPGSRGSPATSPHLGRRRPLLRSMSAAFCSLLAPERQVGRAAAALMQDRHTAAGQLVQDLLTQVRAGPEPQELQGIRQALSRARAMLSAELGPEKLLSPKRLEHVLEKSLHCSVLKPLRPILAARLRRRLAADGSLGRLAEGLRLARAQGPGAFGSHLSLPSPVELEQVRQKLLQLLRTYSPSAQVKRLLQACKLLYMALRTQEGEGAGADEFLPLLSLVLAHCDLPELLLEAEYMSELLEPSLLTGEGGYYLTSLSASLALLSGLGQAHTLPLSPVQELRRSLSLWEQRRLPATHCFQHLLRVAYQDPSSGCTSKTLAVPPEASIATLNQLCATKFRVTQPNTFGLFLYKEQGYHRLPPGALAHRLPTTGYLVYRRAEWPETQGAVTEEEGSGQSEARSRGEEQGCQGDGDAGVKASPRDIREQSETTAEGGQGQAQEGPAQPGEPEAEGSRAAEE
Sequence of Large T antigen (P03070 whole entry): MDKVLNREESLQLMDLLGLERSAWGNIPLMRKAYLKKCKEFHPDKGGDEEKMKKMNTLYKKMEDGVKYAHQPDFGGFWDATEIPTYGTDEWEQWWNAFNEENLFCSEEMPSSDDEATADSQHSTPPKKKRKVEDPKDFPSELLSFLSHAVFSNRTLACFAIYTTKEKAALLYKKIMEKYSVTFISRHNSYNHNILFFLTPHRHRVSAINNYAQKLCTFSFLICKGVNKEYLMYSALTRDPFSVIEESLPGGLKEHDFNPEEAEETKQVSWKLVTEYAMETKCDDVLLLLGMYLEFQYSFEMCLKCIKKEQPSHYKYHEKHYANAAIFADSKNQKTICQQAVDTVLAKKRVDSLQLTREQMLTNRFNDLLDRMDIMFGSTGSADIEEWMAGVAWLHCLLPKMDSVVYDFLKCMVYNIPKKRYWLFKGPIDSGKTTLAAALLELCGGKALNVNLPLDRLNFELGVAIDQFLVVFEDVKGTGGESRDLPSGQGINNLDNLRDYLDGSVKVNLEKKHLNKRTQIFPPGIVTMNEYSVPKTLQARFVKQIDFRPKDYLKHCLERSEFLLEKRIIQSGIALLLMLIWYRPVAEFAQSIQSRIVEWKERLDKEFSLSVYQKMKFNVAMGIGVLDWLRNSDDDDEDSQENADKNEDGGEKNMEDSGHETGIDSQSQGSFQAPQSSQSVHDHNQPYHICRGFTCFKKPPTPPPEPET
Sequence of Cytochrome P450 2C9 (P11712 whole entry): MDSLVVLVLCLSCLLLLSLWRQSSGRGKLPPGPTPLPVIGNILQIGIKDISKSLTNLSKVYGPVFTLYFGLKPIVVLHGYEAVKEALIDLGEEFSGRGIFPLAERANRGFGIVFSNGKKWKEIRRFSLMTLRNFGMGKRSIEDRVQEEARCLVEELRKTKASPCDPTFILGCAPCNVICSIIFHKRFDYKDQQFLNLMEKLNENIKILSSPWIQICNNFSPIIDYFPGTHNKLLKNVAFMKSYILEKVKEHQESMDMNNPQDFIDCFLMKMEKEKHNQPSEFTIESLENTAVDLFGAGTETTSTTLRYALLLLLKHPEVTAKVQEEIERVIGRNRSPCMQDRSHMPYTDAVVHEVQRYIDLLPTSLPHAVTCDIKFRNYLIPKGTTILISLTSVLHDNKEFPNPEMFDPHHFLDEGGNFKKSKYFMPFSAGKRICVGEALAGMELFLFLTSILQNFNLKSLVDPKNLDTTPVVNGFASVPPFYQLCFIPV

## CC(C)n1cc(CN2CCC(C(=O)Nc3cccc(-c4cscn4)c3)CC2)cn1
[1]
  IC50: 54.5 µM (inactive)

## COCCCn1c(=O)c2ccccc2n2c(S)nnc12
[2]
  EC50: > 104 µM (inactive)
[3]
  IC50: 9.15 µM (active)

## CN(C)/C=C1/Oc2c(ccc3ccccc23)C1=O
[4]
  IC50: > 66.2 µM (inactive)
[5]
  IC50: 33.3 µM (inactive)
[6]
  IC50: 18.3 µM (inactive)
[7]
  IC50: > 49.7 µM (inactive)
[8]
  IC50: > 88.8 µM (inactive)
[9]
  IC50: 2.06 µM (active)

## CN(C)CCNc1ncnc2c1sc1nc(N3CCOCC3)c3c(c12)CC(C)(C)SC3
[10]
  AC50: 12.9 µM (active)
[11]
  EC50: 8.17 µM (active)
[12]
  EC50: 8.43 µM (active)
[13]
  AC50: 25.1 µM (inconclusive)
[14]
  EC50: 23.9 µM (active)
[1]
  IC50: 13.7 µM (inactive)
[15]
  AC50: 31.6 µM (inconclusive)
